Assay [1] addresses T1, baculovirus-expressed ALK (Homo sapiens, UniProt Q9UM73).
T1 construct: host or cells: baculovirus expression system
In words: ALK Kinase Assay (ELISA-type, time-resolved fluorescence). The note with it: ALK kinase inhibition, 1 μM ATP; read-out: ALK Activity. It counts as biochemical. The method in brief: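 Wells were coated with phospholipase C-γ at 10 μg/mL in Tris-buffered saline. Adding 30 ng/ml enzyme started the reaction, which ran at 37° C for 15 minutes before Eu-N1 PT66 antibody detection. Percent inhibition versus log10 concentration gave IC50 by variable-slope fit.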

Assay [2] addresses T2, c-Met (cytoplasmic domain) (Homo sapiens, UniProt P08581).
T2 construct: 10 ng/mL c-Met (cytoplasmic domain, Invitrogen Corporation #PV3143); purchased Invitrogen Corporation PV3143
The assay can be described thus: c-Met Kinase Assay (same methods as for ALK, with modifications). The format is biochemical. The note with it: c-Met kinase inhibition, 1 μM ATP; read-out: cMet Activity. The gist of the method: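 Steps: coat wells with PLC-γ (10 μg/mL, Tris-buffered saline); add 10 ng/mL c-Met cytoplasmic domain to initiate; incubate 15 min, 37° C; detect phosphoproduct via Eu-N1 PT66 antibody.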

pIC50: −log10 of the molar value.

T2 sequence (P08581 956-1390 limits assumed): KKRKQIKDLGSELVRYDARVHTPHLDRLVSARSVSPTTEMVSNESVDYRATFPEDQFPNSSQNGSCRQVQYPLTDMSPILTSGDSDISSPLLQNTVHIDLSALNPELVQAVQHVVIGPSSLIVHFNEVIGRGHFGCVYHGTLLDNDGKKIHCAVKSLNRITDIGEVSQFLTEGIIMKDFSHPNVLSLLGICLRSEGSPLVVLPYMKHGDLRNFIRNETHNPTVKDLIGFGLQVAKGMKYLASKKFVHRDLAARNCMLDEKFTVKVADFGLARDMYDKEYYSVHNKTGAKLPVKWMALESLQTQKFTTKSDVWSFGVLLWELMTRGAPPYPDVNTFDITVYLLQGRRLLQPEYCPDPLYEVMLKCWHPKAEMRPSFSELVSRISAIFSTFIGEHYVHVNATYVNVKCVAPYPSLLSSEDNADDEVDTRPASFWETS
T1 sequence (Q9UM73 19-1620): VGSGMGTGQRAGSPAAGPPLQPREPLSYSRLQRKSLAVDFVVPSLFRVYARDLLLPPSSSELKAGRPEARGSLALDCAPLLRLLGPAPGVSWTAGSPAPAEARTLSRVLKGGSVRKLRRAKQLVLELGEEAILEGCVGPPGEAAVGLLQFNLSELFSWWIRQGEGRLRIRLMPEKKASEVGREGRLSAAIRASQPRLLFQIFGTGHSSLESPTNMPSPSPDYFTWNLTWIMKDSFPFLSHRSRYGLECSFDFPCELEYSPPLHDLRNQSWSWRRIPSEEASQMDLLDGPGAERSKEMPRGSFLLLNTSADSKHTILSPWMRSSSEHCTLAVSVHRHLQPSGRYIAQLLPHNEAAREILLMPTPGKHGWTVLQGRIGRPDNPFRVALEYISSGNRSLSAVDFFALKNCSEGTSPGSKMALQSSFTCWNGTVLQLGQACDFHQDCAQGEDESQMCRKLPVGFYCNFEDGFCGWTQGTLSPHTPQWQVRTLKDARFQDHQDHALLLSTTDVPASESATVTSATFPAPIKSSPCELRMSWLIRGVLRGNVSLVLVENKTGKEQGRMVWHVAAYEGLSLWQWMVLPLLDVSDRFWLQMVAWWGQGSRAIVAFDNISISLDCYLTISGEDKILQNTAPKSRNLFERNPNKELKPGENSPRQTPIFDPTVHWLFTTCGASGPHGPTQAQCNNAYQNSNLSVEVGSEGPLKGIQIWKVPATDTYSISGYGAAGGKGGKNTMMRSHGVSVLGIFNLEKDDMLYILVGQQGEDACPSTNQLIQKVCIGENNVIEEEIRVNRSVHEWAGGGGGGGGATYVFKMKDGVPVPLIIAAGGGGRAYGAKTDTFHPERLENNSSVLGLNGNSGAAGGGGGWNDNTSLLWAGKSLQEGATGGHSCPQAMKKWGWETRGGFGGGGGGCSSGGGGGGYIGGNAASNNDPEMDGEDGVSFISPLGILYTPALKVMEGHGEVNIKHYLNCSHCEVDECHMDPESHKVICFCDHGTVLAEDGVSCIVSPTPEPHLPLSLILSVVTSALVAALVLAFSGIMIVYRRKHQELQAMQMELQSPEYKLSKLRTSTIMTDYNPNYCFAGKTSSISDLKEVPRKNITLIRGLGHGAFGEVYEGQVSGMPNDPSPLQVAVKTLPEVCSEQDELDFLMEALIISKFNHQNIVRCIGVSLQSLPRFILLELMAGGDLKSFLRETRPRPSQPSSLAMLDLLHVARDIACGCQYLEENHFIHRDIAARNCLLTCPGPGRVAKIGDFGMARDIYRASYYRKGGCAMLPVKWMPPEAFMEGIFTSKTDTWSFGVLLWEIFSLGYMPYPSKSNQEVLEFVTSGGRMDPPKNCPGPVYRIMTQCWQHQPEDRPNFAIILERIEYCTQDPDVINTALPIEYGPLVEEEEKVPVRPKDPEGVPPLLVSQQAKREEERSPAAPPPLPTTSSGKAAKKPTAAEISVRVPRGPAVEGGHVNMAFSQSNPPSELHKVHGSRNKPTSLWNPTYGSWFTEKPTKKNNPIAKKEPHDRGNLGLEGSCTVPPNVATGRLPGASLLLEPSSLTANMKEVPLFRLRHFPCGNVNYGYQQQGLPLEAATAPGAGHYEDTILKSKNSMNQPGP

For the compound `CN1C(=O)OCCc2cc(Nc3ncc(Cl)c(Nc4c(F)cccc4OCCO)n3)ccc21` [Example 1732, 2-{5-Chloro-4-[2-fluoro-6-(2-hydroxy-ethoxy)-phenylamino]-pyrimidin-2-ylamino}-5-methyl-8,9-dihydro-5H-7-oxa-5-aza-benzocyclohepten-6-one], the pIC50 in assay [1] and in assay [2] was above 7.00 each time.

On to `C#CCNC(=O)c1cccc(F)c1Nc1nc(Nc2ccc3c(c2)N(C(C)C)CCCO3)ncc1Cl` [Example 1733, 2-[5-Chloro-2-(9-isopropyl-6,7,8,9-tetrahydro-5-oxa-9-aza-benzocyclohepten-2-ylamino)-pyrimidin-4-ylamino]-3-fluoro-N-prop-2-ynyl-benzamide], for which the pIC50 was above 7.00 in assay [1] and 6.00 to 7.00 in assay [2].

In the case of `CNC(=O)c1cccc(F)c1Nc1nc(Nc2ccc3c(c2)N(C(C)C)CCCO3)ncc1Cl` [Example 1734, 2-[5-Chloro-2-(9-isopropyl-6,7,8,9-tetrahydro-5-oxa-9-aza-benzocyclohepten-2-ylamino)-pyrimidin-4-ylamino]-3-fluoro-N-methyl-benzamide], the pIC50 in assay [1] and in assay [2] was above 7.00 in each case.

As for `C#CCNC(=O)c1cccc(F)c1Nc1nc(Nc2ccc3c(c2)OCC(O)(CO)CN3CC)ncc1Cl` (centres unmarked) [Example 1735, 2-[5-Chloro-2-(9-ethyl-7-hydroxy-7-hydroxymethyl-6,7,8,9-tetrahydro-5-oxa-9-aza-benzocyclohepten-3-ylamino)-pyrimidin-4-ylamino]-3-fluoro-N-prop-2-ynyl-benzamide], the pIC50 in assay [1] and in assay [2] was 6.00 to 7.00 each time.

On to `CCN1CC(O)(CO)COc2cc(Nc3ncc(Cl)c(Nc4c(F)cccc4C(=O)NC)n3)ccc21` (centres unmarked) [Example 1736, 2-[5-Chloro-2-(9-ethyl-7-hydroxy-7-hydroxymethyl-6,7,8,9-tetrahydro-5-oxa-9-aza-benzocyclohepten-3-ylamino)-pyrimidin-4-ylamino]-3-fluoro-N-methyl-benzamide], for which the pIC50 in assay [1] is 6.00 to 7.00; in assay [2], above 7.00.

For `CNC(=O)c1ccccc1Nc1nc(Nc2ccc3c(c2)CCOC(=O)N3C)ncc1Cl` [Example 1741, 2-[5-Chloro-2-(5-methyl-6-oxo-5,6,8,9-tetrahydro-7-oxa-5-aza-benzocyclohepten-2-ylamino)-pyrimidin-4-ylamino]-N-methylbenzamide], the pIC50 in assay [1] and in assay [2] was above 7.00 throughout.

For the compound `CNC(=O)c1cccc(F)c1Nc1nc(Nc2ccc3c(c2)CCOC(=O)N3C)ncc1Cl` [Example 1742, 3-Fluoro-2-[5-chloro-2-(5-methyl-6-oxo-5,6,8,9-tetrahydro-7-oxa-5-aza-benzocyclohepten-2-ylamino)-pyrimidin-4-ylamino]-N-methyl-benzamide], the pIC50 in assay [1] and in assay [2] was above 7.00 each time.

Regarding `CNC(=O)c1cccc(Cl)c1Nc1nc(Nc2ccc3c(c2)CCOC(=O)N3C)ncc1Cl` [Example 1743, 3-Chloro-2-[5-chloro-2-(5-methyl-6-oxo-5,6,8,9-tetrahydro-7-oxa-5-aza-benzocyclohepten-2-ylamino)-pyrimidin-4-ylamino]-N-methyl-benzamide], the results for the pIC50 in assay [1] and in assay [2] were 5.00 to 6.00 and above 7.00, respectively.

With `CNC(=O)c1cccc(C)c1Nc1nc(Nc2ccc3c(c2)CCOC(=O)N3C)ncc1Cl` [Example 1744, 2-[5-Chloro-2-(5-methyl-6-oxo-5,6,8,9-tetrahydro-7-oxa-5-aza-benzocyclohepten-2-ylamino)-pyrimidin-4-ylamino]-3,N-dimethyl-benzamide], the pIC50 is 5.00 to 6.00 in assay [1] and above 7.00 in assay [2].

As to `CCN1C(=O)OCCc2cc(Nc3ncc(Cl)c(Nc4ccccc4C(=O)NC)n3)ccc21` [Example 1745, 2-[5-chloro-2-(5-ethyl-6-oxo-5,6,8,9-tetrahydro-7-oxa-5-aza-benzocyclohepten-2-ylamino)-pyrimidin-4-ylamino]-N-methyl-benzamide], the pIC50 in assay [1] and in assay [2] was above 7.00 each time.

The values are drawn from patent US8148391B2 (Cephalon, Inc., priority 2006, dated 2012).
